{"source": "patent US11236044B2", "about": "“Selective inhibitors of 12(S)-lipoxygenase (12-LOX) and methods for use of the same” (THE REGENTS OF THE UNIVERSITY OF MICHIGAN, priority 2018, dated 2022)", "origin": "cited, not measured here", "key": {"5-human lipoxygenase": {"target": "T1, 5-human lipoxygenase (Homo sapiens, UniProt P09917)", "T1 sequence (P09917 1-674)": "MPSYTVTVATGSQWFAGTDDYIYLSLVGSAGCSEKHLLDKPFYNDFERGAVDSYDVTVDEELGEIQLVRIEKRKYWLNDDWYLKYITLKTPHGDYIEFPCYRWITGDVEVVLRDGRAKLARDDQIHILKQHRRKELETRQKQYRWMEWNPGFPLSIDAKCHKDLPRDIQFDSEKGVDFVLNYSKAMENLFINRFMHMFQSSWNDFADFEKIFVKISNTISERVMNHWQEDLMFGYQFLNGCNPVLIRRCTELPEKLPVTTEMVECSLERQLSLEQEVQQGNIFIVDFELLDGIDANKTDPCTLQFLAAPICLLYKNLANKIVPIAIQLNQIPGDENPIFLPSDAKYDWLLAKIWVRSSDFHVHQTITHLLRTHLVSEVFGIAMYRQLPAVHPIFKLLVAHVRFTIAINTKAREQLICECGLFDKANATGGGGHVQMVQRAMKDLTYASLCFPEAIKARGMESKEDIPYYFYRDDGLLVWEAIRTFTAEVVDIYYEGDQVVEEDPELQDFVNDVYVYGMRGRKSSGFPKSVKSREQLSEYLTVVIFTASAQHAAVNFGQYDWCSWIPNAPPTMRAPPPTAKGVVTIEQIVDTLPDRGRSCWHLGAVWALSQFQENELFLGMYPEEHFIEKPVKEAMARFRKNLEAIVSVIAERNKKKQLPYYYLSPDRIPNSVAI", "conditions": "12-LOX versus paralog; cited from earlier work"}, "[1]": {"target": "T2, bovine cyclooxygenase (“COX”)-1 (Bos taurus, UniProt O62664)", "T2 sequence (O62664 25-600)": "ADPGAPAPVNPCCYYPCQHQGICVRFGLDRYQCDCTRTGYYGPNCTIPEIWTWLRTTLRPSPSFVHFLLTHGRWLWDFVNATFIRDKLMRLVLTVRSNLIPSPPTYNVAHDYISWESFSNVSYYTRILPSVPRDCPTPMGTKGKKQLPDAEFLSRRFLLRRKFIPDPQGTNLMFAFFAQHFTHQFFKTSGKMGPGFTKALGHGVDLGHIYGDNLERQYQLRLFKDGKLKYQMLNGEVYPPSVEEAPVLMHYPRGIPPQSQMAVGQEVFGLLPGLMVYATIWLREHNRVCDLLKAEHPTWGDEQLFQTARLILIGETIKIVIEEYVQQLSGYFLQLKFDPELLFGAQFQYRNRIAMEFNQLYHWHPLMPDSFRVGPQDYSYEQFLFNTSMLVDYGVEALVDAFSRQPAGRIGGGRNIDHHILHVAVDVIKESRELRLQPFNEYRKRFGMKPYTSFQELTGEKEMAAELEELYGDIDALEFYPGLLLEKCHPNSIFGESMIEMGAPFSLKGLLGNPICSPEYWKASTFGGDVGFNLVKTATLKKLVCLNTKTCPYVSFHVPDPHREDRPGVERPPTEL", "conditions": "12-LOX versus bovine COX-1; cited from earlier work"}, "[2]": {"test_system": "thrombus formation and vessel occlusion", "conditions": "cited from earlier work"}, "[3]": {"target": "reticulocyte 15-human lipoxygenase type-1 (Homo sapiens, UniProt P16050)", "sequence (P16050 whole entry)": "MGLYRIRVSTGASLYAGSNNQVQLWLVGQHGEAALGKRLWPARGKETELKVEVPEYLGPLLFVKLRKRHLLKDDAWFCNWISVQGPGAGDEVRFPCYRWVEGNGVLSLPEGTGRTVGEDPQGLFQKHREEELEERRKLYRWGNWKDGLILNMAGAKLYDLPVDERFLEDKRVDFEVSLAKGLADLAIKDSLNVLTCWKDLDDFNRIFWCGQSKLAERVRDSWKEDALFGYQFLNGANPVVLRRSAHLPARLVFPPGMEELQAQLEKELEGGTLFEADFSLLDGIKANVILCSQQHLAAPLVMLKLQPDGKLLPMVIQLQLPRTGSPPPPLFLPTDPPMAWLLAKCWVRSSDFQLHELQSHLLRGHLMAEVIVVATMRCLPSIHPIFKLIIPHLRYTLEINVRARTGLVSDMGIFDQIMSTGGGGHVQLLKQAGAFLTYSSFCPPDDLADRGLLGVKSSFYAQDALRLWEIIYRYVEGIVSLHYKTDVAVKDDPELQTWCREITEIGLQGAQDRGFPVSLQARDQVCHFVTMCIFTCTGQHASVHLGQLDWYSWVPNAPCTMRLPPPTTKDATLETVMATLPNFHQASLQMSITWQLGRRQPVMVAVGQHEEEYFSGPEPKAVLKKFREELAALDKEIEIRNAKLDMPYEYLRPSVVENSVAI", "conditions": "12-LOX versus paralog; cited from earlier work"}, "[4]": {"conditions": "cited from earlier work"}, "[5]": {"conditions": "cited from earlier work", "remark": "listed apart in the source"}, "[6]": {"target": "T3, epithelial 15-human lipoxygenase type-2 (Homo sapiens, UniProt O15296)", "T3 sequence (O15296 1-676)": "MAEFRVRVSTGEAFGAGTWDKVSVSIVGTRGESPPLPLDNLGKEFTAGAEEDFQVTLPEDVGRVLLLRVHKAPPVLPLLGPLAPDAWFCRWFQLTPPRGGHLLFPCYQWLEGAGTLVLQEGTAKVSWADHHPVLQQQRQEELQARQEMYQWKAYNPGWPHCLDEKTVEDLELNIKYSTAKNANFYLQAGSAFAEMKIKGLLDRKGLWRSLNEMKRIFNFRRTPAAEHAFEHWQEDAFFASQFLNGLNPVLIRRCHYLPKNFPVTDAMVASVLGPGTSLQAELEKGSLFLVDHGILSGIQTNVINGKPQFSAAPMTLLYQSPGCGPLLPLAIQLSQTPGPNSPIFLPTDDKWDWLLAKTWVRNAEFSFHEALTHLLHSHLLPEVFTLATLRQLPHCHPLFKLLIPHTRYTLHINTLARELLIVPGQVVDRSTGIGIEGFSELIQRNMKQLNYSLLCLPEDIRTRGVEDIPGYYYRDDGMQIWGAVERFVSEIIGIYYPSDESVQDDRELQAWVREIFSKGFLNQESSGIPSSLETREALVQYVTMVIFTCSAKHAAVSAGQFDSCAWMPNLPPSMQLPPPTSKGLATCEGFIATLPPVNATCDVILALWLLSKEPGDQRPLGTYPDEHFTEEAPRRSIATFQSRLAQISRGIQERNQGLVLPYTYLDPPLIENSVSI", "conditions": "12-LOX versus paralog; cited from earlier work"}, "human COX-2": {"target": "T4, human COX-2 (Homo sapiens, UniProt P35354)", "T4 sequence (P35354 18-604)": "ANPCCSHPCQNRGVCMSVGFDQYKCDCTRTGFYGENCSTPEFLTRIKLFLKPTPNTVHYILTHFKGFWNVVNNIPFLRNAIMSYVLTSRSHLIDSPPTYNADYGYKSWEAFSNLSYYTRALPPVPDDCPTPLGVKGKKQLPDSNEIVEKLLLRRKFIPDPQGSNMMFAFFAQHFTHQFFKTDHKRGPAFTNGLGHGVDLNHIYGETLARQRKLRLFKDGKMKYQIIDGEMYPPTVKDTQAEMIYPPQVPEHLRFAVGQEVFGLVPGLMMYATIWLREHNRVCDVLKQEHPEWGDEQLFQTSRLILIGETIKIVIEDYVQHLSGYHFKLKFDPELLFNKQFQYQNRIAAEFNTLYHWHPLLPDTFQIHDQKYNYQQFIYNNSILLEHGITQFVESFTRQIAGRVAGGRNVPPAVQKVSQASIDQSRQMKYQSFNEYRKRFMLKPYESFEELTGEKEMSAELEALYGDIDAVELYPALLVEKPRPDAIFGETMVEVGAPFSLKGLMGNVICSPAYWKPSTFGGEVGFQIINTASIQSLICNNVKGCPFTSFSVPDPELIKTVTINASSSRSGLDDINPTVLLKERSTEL", "conditions": "12-LOX versus human COX-2; cited from earlier work"}, "[7]": {"conditions": "in vivo; cited from earlier work"}}, "data": [{"smiles": "COc1cccc(CNc2ccc(S(=O)(=O)Nc3nc4ccccc4s3)cc2)c1O", "note": "[ML355]", "values": [{"measurement": "selectivity versus 5-human lipoxygenase", "setting": "5-human lipoxygenase", "result": "> 50", "unit": "fold"}, {"measurement": "selectivity versus bovine COX-1", "setting": "[1]", "result": "> 100", "unit": "fold"}, {"measurement": "thrombus formation and vessel occlusion in vivo", "setting": "[2]", "result": "impair thrombus formulation and vessel occlusion in vivo"}, {"measurement": "effects on hemostasis", "setting": "[2]; in vivo", "result": "minimal affects on hemostasis"}, {"measurement": "selectivity versus reticulocyte 15-human lipoxygenase type-1", "setting": "[3]", "result": "> 50", "unit": "fold"}, {"measurement": "solubility", "setting": "[4]", "result": "limited solubility"}, {"measurement": "tolerance in preclinical studies", "setting": "[5]", "result": "relatively good tolerance"}, {"measurement": "selectivity versus epithelial 15-human lipoxygenase type-2", "setting": "[6]", "result": "> 50", "unit": "fold"}, {"measurement": "selectivity versus human COX-2", "setting": "human COX-2", "result": "> 100", "unit": "fold"}, {"measurement": "pharmacokinetics", "setting": "[7]", "result": "reasonable pharmacokinetics"}]}]}
